According to PubChem BioAssay AID330 (DTP/NCI, 2004):
“And” between values parts separate entries of the source, which are not always exact repeats. Equal entries are not always repeated. Toxic doses and inconclusive results are not listed. How the source made its calls: active means survival T/C of 150% or more; inactive means T/C below 125% in these data.

Tested on: P388 leukemia ip, CD2F1 mice, survival T/C
Assay: NCI In Vivo Anticancer Drug Screen. Data for tumor model P388 Leukemia (intraperitoneal) in CD2F1 (CDF1) mice
Settings: endpoint: median survival time, higher = longer survival
Outline: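 Mice carrying the transplanted tumor received test compound or vehicle. Survival was recorded in each group, and the value is the treated-group measurement divided by that of the vehicle-treated control group.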

[1] = dose: 60.0 mg/kg/injection, schedule: Q01DX005 (ip), vehicle: saline with Tween-80
[2] = dose: 240.0 mg/kg/injection, schedule: Q01DX005 (ip), vehicle: saline with Tween-80
[3] = dose: 50.0 mg/kg/injection, schedule: Q01DX009 (ip), vehicle: saline with Tween-80
[4] = dose: 100.0 mg/kg/injection, schedule: Q01DX009 (ip), vehicle: saline with Tween-80
[5] = dose: 200.0 mg/kg/injection, schedule: Q01DX009 (ip), vehicle: saline with Tween-80
[6] = dose: 50.0 mg/kg/injection, schedule: Q01DX005 (ip), vehicle: saline with Tween-80
[7] = dose: 100.0 mg/kg/injection, schedule: Q01DX005 (ip), vehicle: saline with Tween-80
[8] = dose: 200.0 mg/kg/injection, schedule: Q01DX005 (ip), vehicle: saline with Tween-80

Measured: T/C

CS(C)=O
inactive: dose: 93.75 mg/kg/injection, schedule: Q01DX009 (ip), vehicle: saline 109 % of control | dose: 187.5 mg/kg/injection, schedule: Q01DX009 (ip), vehicle: saline 107 % of control | dose: 375.0 mg/kg/injection, schedule: Q01DX009 (ip), vehicle: saline 98 % of control | dose: 750.0 mg/kg/injection, schedule: Q01DX009 (ip), vehicle: saline 109 % of control | dose: 1500.0 mg/kg/injection, schedule: Q01DX009 (ip), vehicle: saline 104 % of control | dose: 1.5 grams/kg/injection, schedule: Q01DX001 (ip), vehicle: saline 99 % of control and 101 % of control | dose: 1.5 grams/kg/injection, schedule: Q01DX009 (ip), vehicle: saline 101 % of control and 109 % of control | dose: 2.0 % in 0.5 ml injection vol, schedule: Q01DX009 (ip), vehicle: water 103 % of control and 95 % of control | dose: 3000.0 mg/kg/injection, schedule: Q01DX001 (ip), vehicle: water 104 % of control | dose: 3000.0 mg/kg/injection, schedule: Q01DX009 (ip), vehicle: saline 95 % of control | dose: 3.0 grams/kg/injection, schedule: Q01DX001 (ip), vehicle: saline 104 % of control and 106 % of control | dose: 3.0 grams/kg/injection, schedule: Q01DX009 (ip), vehicle: saline 96 % of control | dose: 3.1 grams/kg/injection, schedule: Q01DX009 (ip), vehicle: water 101 % of control | dose: 4.0 % in 0.5 ml injection vol, schedule: Q01DX009 (ip), vehicle: water 112 % of control and 94 % of control | dose: 6000.0 mg/kg/injection, schedule: Q01DX001 (ip), vehicle: water 99 % of control | dose: 6.0 grams/kg/injection, schedule: Q01DX001 (ip), vehicle: saline 95 % of control and 98 % of control | dose: 6.0 grams/kg/injection, schedule: Q01DX009 (ip), vehicle: saline 100 % of control and 106 % of control | dose: 6.2 grams/kg/injection, schedule: Q01DX009 (ip), vehicle: water 97 % of control | dose: 6.25 % in 0.5 ml injection vol, schedule: Q01DX009 (ip), vehicle: water 103 % of control | dose: 8.0 % in 0.5 ml injection vol, schedule: Q01DX009 (ip), vehicle: water 103 % of control and 112 % of control | dose: 12000.0 mg/kg/injection, schedule: Q01DX001 (ip), vehicle: water 101 % of control | dose: 12.0 grams/kg/injection, schedule: Q01DX001 (ip), vehicle: saline 104 % of control and 96 % of control | dose: 12.5 % in 0.5 ml injection vol, schedule: Q01DX009 (ip), vehicle: water 110 % of control | dose: 12.5 grams/kg/injection, schedule: Q01DX009 (ip), vehicle: water 108 % of control | dose: 16.0 % in 0.5 ml injection vol, schedule: Q01DX009 (ip), vehicle: water 102 % of control and 105 % of control and 112 % of control | dose: 24.0 grams/kg/injection, schedule: Q01DX001 (ip), vehicle: saline 37 % of control and 39 % of control | dose: 25.0 % in 0.5 ml injection vol, schedule: Q01DX009 (ip), vehicle: water 117 % of control | dose: 32.0 % in 0.5 ml injection vol, schedule: Q01DX009 (ip), vehicle: water 111 % of control and 121 % of control

Fc1c(F)c(F)c(CCc2c(F)c(F)c(F)c(F)c2F)c(F)c1F
inactive: [1] 99 % of control | dose: 120.0 mg/kg/injection, schedule: Q01DX005 (ip), vehicle: saline with Tween-80 89 % of control | [2] 88 % of control

N#CCCn1ncc(C#N)c1N
inactive: dose: 50.0 mg/kg/injection, schedule: Q01DX005 (ip), vehicle: Klucel (hydroxypropylcellulose) (HPC) 99 % of control | dose: 100.0 mg/kg/injection, schedule: Q01DX005 (ip), vehicle: Klucel (hydroxypropylcellulose) (HPC) 107 % of control | dose: 200.0 mg/kg/injection, schedule: Q01DX005 (ip), vehicle: Klucel (hydroxypropylcellulose) (HPC) 90 % of control

Cc1ccc(S(=O)(=O)NC(=O)N(C)NC(=O)C(=O)NCc2ccco2)cc1
inactive: [3] 103 % of control | [4] 103 % of control | [5] 99 % of control

C=C[C@@H]1C[C@@]2(C)O[C@@H]([C@@H](OCc3ccccc3)[C@@H]1OC)[C@@H](C)O2
inactive: dose: 100.0 mg/kg/injection, schedule: Q01DX001 (ip), vehicle: saline with Tween-80 96 % of control | dose: 200.0 mg/kg/injection, schedule: Q01DX001 (ip), vehicle: saline with Tween-80 104 % of control | dose: 400.0 mg/kg/injection, schedule: Q01DX001 (ip), vehicle: saline with Tween-80 104 % of control

Clc1ccccc1/C=C/c1ccnnc1
inactive: dose: 25.0 mg/kg/injection, schedule: Q01DX001 (ip), vehicle: saline 96 % of control | dose: 50.0 mg/kg/injection, schedule: Q01DX001 (ip), vehicle: saline 95 % of control | dose: 100.0 mg/kg/injection, schedule: Q01DX001 (ip), vehicle: saline 95 % of control | dose: 100.0 mg/kg/injection, schedule: Q01DX001 (ip), vehicle: suspension in saline 101 % of control | dose: 200.0 mg/kg/injection, schedule: Q01DX001 (ip), vehicle: suspension in saline 97 % of control | dose: 400.0 mg/kg/injection, schedule: Q01DX001 (ip), vehicle: suspension in saline 97 % of control

CCC1(O)CCC2C3CC=C4CCCCC4C3CCC21C (centres undefined)
inactive: dose: 50.0 mg/kg/injection, schedule: Q01DX009 (ip), vehicle: saline 107 % of control | dose: 100.0 mg/kg/injection, schedule: Q01DX009 (ip), vehicle: saline 100 % of control | dose: 200.0 mg/kg/injection, schedule: Q01DX009 (ip), vehicle: saline 100 % of control

O=C(O)C1(Br)CC2(C1)CC(Br)(C(=O)O)C2 (centres undefined)
inactive: dose: 100.0 mg/kg/injection, schedule: Q04DX002 (ip), vehicle: other 94 % of control | dose: 200.0 mg/kg/injection, schedule: Q04DX002 (ip), vehicle: other 91 % of control | dose: 400.0 mg/kg/injection, schedule: Q04DX002 (ip), vehicle: other 103 % of control

[Zn].c1c[nH]cn1.c1c[nH]cn1.c1c[nH]cn1.c1c[nH]cn1
inactive: dose: 25.0 mg/kg/injection, schedule: Q01DX005 (ip), vehicle: saline with Tween-80 107 % of control and 109 % of control | [6] 106 % of control and 110 % of control and 115 % of control

NC(N)=NCCCC1NC(=O)C(Cc2ccc(O)cc2)NC1=O (centres undefined)
inactive: [6] 98 % of control and 93 % of control | [7] 100 % of control | [8] 100 % of control and 101 % of control

CC1=C(C)C(=O)C2=C(OCCO2)C1=O
inactive: dose: 15.0 mg/kg/injection, schedule: Q01DX005 (ip), vehicle: Klucel (hydroxypropylcellulose) (HPC) 100 % of control | dose: 30.0 mg/kg/injection, schedule: Q01DX005 (ip), vehicle: Klucel (hydroxypropylcellulose) (HPC) 106 % of control | dose: 60.0 mg/kg/injection, schedule: Q01DX005 (ip), vehicle: Klucel (hydroxypropylcellulose) (HPC) 104 % of control

CC1=CC(OCc2ccccc2)OC1=O (centres undefined)
inactive: dose: 100.0 mg/kg/injection, schedule: Q04DX002 (ip), vehicle: Klucel (hydroxypropylcellulose) (HPC) 101 % of control | dose: 200.0 mg/kg/injection, schedule: Q04DX002 (ip), vehicle: Klucel (hydroxypropylcellulose) (HPC) 102 % of control | dose: 400.0 mg/kg/injection, schedule: Q04DX002 (ip), vehicle: Klucel (hydroxypropylcellulose) (HPC) 104 % of control

O=[N+]([O-])c1ccccc1N=Nc1c(-c2ccccc2)nn(C(=S)N2CCOCC2)c1-c1ccccc1
inactive: dose: 1.5 mg/kg/injection, schedule: Q01DX005 (ip), vehicle: saline with Tween-80 102 % of control | dose: 3.0 mg/kg/injection, schedule: Q01DX005 (ip), vehicle: saline with Tween-80 96 % of control | dose: 6.0 mg/kg/injection, schedule: Q01DX005 (ip), vehicle: saline with Tween-80 87 % of control | dose: 6.25 mg/kg/injection, schedule: Q01DX005 (ip), vehicle: saline with Tween-80 92 % of control | [7] 86 % of control | [8] 95 % of control

O=C(NNC(=O)c1ccccc1O)Nc1ccc(Cl)cc1C(F)(F)F
inactive: [3] 103 % of control | [4] 106 % of control | [5] 100 % of control

COc1ccc(NC(=O)CCC2=CC(=O)CC(c3ccccc3)O2)cc1 (centres undefined)
inactive: [1] 105 % of control | dose: 124.0 mg/kg/injection, schedule: Q01DX005 (ip), vehicle: saline with Tween-80 104 % of control | [2] 104 % of control

O=S(=O)(O)c1ccc(-c2c3nc(c(-c4ccc(S(=O)(=O)O)cc4)c4ccc([nH]4)c(-c4ccc(S(=O)(=O)O)cc4)c4nc(c(-c5ccc(S(=O)(=O)O)cc5)c5ccc2[nH]5)C=C4)C=C3)cc1
inactive: dose: 1.56 mg/kg/injection, schedule: Q01DX009 (ip), vehicle: distilled water + Tween-80 97 % of control | dose: 3.13 mg/kg/injection, schedule: Q01DX009 (ip), vehicle: distilled water + Tween-80 100 % of control | dose: 6.25 mg/kg/injection, schedule: Q01DX009 (ip), vehicle: distilled water + Tween-80 100 % of control | dose: 12.5 mg/kg/injection, schedule: Q01DX009 (ip), vehicle: distilled water + Tween-80 102 % of control and 109 % of control
